Test results: PubChem BioAssay AID1259407 (Chemical Carcinogenesis Research Information System (CCRIS), 2018)
Activity calls are given as the source filed them. How the calls were made is not given here.

System: CCRIS mutagenicity, Ames/micronucleus/aberration tests
Test: CCRIS mutagenicity studies
[1] = Test System: AMES SALMONELLA TYPHIMURIUM, Strain/Indicator: TA98, Metabolic Activation: NONE, Method: PREINCUBATION
[2] = Test System: AMES SALMONELLA TYPHIMURIUM, Strain/Indicator: TA100, Metabolic Activation: NONE, Method: PREINCUBATION
[3] = Test System: AMES SALMONELLA TYPHIMURIUM, Strain/Indicator: TA1535, Metabolic Activation: NONE, Method: PREINCUBATION
[4] = Test System: AMES SALMONELLA TYPHIMURIUM, Strain/Indicator: TA1537, Metabolic Activation: NONE, Method: PREINCUBATION
[5] = Test System: AMES SALMONELLA TYPHIMURIUM, Strain/Indicator: TA100, Metabolic Activation: NONE, Method: STANDARD PLATE
[6] = Test System: AMES SALMONELLA TYPHIMURIUM, Strain/Indicator: TA100, Metabolic Activation: HAMSTER, LIVER, S-9, AROCLOR 1254 (10%), Method: PREINCUBATION
[7] = Test System: AMES SALMONELLA TYPHIMURIUM, Strain/Indicator: TA100, Metabolic Activation: RAT, LIVER, S-9, AROCLOR 1254 (10%), Method: PREINCUBATION
[8] = Test System: AMES SALMONELLA TYPHIMURIUM, Strain/Indicator: TA1535, Metabolic Activation: HAMSTER, LIVER, S-9, AROCLOR 1254 (10%), Method: PREINCUBATION
[9] = Test System: AMES SALMONELLA TYPHIMURIUM, Strain/Indicator: TA1535, Metabolic Activation: RAT, LIVER, S-9, AROCLOR 1254 (10%), Method: PREINCUBATION

In the case of Cc1cccc(N)c1, the mutagenic call (Test System: AMES SALMONELLA TYPHIMURIUM, Strain/Indicator: TA97, Metabolic Activation: HAMSTER, LIVER, S-9, AROCLOR 1254 (10 OR 30%), Method: PREINCUBATION) is reported as “inactive; negative”, the mutagenic call (Test System: AMES SALMONELLA TYPHIMURIUM, Strain/Indicator: TA97, Metabolic Activation: NONE, Method: PREINCUBATION) is reported as “inactive; negative” and the mutagenic call (Test System: AMES SALMONELLA TYPHIMURIUM, Strain/Indicator: TA97, Metabolic Activation: RAT, LIVER, S-9, AROCLOR 1254 (10 OR 30%), Method: PREINCUBATION) is reported as “inactive; negative”. The mutagenic call (Test System: AMES SALMONELLA TYPHIMURIUM, Strain/Indicator: TA98, Metabolic Activation: HAMSTER, LIVER, S-9, AROCLOR 1254 (10 OR 30%), Method: PREINCUBATION) was “inactive; negative”, the mutagenic call [1] was “inactive; negative” and the mutagenic call (Test System: AMES SALMONELLA TYPHIMURIUM, Strain/Indicator: TA98, Metabolic Activation: RAT, LIVER, S-9, AROCLOR 1254 (10 OR 30%), Method: PREINCUBATION) was “inactive; negative”. For the same compound, the mutagenic call (Test System: AMES SALMONELLA TYPHIMURIUM, Strain/Indicator: TA100, Metabolic Activation: HAMSTER, LIVER, S-9, AROCLOR 1254 (10 OR 30%), Method: PREINCUBATION) was “inactive; negative”, the mutagenic call [2] was “inactive; negative” and the mutagenic call (Test System: AMES SALMONELLA TYPHIMURIUM, Strain/Indicator: TA100, Metabolic Activation: RAT, LIVER, S-9, AROCLOR 1254 (10 OR 30%), Method: PREINCUBATION) was “inactive; negative”. For the same compound, the mutagenic call (Test System: AMES SALMONELLA TYPHIMURIUM, Strain/Indicator: TA1535, Metabolic Activation: HAMSTER, LIVER, S-9, AROCLOR 1254 (10 OR 30%), Method: PREINCUBATION) was “inactive; negative”, the mutagenic call [3] was “inactive; negative” and the mutagenic call (Test System: AMES SALMONELLA TYPHIMURIUM, Strain/Indicator: TA1535, Metabolic Activation: RAT, LIVER, S-9, AROCLOR 1254 (10 OR 30%), Method: PREINCUBATION) was “inactive; negative”. For the same compound, the mutagenic call (Test System: AMES SALMONELLA TYPHIMURIUM, Strain/Indicator: TA1537, Metabolic Activation: HAMSTER, LIVER, S-9, AROCLOR 1254 (10 OR 30%), Method: PREINCUBATION) was “inactive; negative”, the mutagenic call [4] was “inactive; negative” and the mutagenic call (Test System: AMES SALMONELLA TYPHIMURIUM, Strain/Indicator: TA1537, Metabolic Activation: RAT, LIVER, S-9, AROCLOR 1254 (10 OR 30%), Method: PREINCUBATION) was “inactive; negative”.

For CC[C@@]1(O)C(=O)OCc2c1cc1n(c2=O)Cc2cc3ccccc3nc2-1, the mutagenic call (End Point: In vitro micronucleus, Test System: Human lymphoblastoid TK6 cells, Metabolic Activation: None) was “active; positive (no dose response; toxicity may play a role)”, the mutagenic call (End Point: In vivo micronucleus, Test System: Peripheral blood reticulocytes, Species: Mouse, Strain/Sex: CD2F1, Route: Oral) was “active; positive” and the mutagenic call (End Point: In vivo micronucleus, Test System: Peripheral blood reticulocytes, Species: Mouse, Strain/Sex: Muta Mouse, Route: Oral) was “active; positive”. The mutagenic call (Test System: CHINESE HAMSTER V-79, Strain/Indicator: V-79 (HPRT)/6-THIOGUANINE, Metabolic Activation: NONE) was “active; positive”, the mutagenic call (Test System: LacZ plasmid mouse (C57BL/6J transgenic), Strain/Indicator: LacZ Mutant frequency, Method: Bone marrow and liver harvested 35 days after last dose) was “inactive; negative” and the mutagenic call (Test System: LacZ transgenic mouse (Muta Mouse), Strain/Indicator: LacZ Mutant frequency, Method: Bone marrow and liver harvested 35 days after last dose) was “inactive; negative”. For the same compound, the mutagenic call (Test System: LacZ transgenic mouse (Muta Mouse), Strain/Indicator: LacZ Mutant frequency, Method: Liver and kidney harvested 37 days after last dose) was “inactive; negative”.

For Cl/C=C(\Cl)c1c(Cl)c(Cl)c(Cl)c(Cl)c1Cl, the mutagenic call (Test System: AMES SALMONELLA TYPHIMURIUM, Strain/Indicator: TA98, Metabolic Activation: NONE, Method: STANDARD PLATE) was “inactive; negative”, the mutagenic call (Test System: AMES SALMONELLA TYPHIMURIUM, Strain/Indicator: TA98, Metabolic Activation: RAT, LIVER, S-9, AROCLOR 1254, Method: STANDARD PLATE) was “inactive; negative” and the mutagenic call [5] was “inactive; negative”. For the same compound, the mutagenic call (Test System: AMES SALMONELLA TYPHIMURIUM, Strain/Indicator: TA100, Metabolic Activation: RAT, LIVER, S-9, AROCLOR 1254, Method: STANDARD PLATE) was “inactive; negative”.

CCCCCCCCCCCCCOC(=O)c1ccccc1C(=O)OCCCCCCCCCCCCC was tested, and the mutagenic call (Test System: AMES SALMONELLA TYPHIMURIUM, Strain/Indicator: TA98, Metabolic Activation: HAMSTER, LIVER, S-9, AROCLOR 1254 (10%), Method: PREINCUBATION) was “inactive; negative”, the mutagenic call [1] was “inactive; negative” and the mutagenic call (Test System: AMES SALMONELLA TYPHIMURIUM, Strain/Indicator: TA98, Metabolic Activation: RAT, LIVER, S-9, AROCLOR 1254 (10%), Method: PREINCUBATION) was “inactive; negative”. The mutagenic call [6] was “inactive; negative”, the mutagenic call [2] was “inactive; negative” and the mutagenic call [7] was “inactive; negative”. For the same compound, the mutagenic call [8] was “inactive; negative”, the mutagenic call [3] was “inactive; negative” and the mutagenic call [9] was “inactive; negative”. For the same compound, the mutagenic call (Test System: AMES SALMONELLA TYPHIMURIUM, Strain/Indicator: TA1537, Metabolic Activation: HAMSTER, LIVER, S-9, AROCLOR 1254 (10%), Method: PREINCUBATION) was “inactive; negative”, the mutagenic call [4] was “inactive; negative” and the mutagenic call (Test System: AMES SALMONELLA TYPHIMURIUM, Strain/Indicator: TA1537, Metabolic Activation: RAT, LIVER, S-9, AROCLOR 1254 (10%), Method: PREINCUBATION) was “inactive; negative”.

CC(C)(c1ccc(OCC2CO2)cc1)c1ccc(OCC2CO2)cc1 (stereo not given) was tested, and the mutagenic call [6] was “active; positive”, the mutagenic call [2] was “active; positive” and the mutagenic call [5] was “active; positive”. The mutagenic call (Test System: AMES SALMONELLA TYPHIMURIUM, Strain/Indicator: TA100, Metabolic Activation: RAT LIVER S-9, PHENOBARBITAL/METHYLCHOLANTHRENE (2 OR 10%), Method: STANDARD PLATE) was “active; positive”, the mutagenic call (Test System: AMES SALMONELLA TYPHIMURIUM, Strain/Indicator: TA100, Metabolic Activation: RAT LIVER S-9, PHENOBARBITAL/METHYLCHOLANTHRENE (4%), Method: STANDARD PLATE) was “active; positive” and the mutagenic call [7] was “active; positive”. For the same compound, the mutagenic call [8] was “active; positive”, the mutagenic call [3] was “active; positive” and the mutagenic call (Test System: AMES SALMONELLA TYPHIMURIUM, Strain/Indicator: TA1535, Metabolic Activation: NONE, Method: STANDARD PLATE) was “inactive; negative”. For the same compound, the mutagenic call (Test System: AMES SALMONELLA TYPHIMURIUM, Strain/Indicator: TA1535, Metabolic Activation: RAT LIVER S-9, PHENOBARBITAL/METHYLCHOLANTHRENE (4, 10 OR 20%), Method: STANDARD PLATE) was “active; positive”, the mutagenic call [9] was “active; positive” and the mutagenic call (Test System: E. coli, Strain/Indicator: IC3327, Metabolic Activation: None, Method: Standard Plate) was “active; positive”. The mutagenic call (Test System: E. coli, Strain/Indicator: IC3327, Metabolic Activation: Rat, Liver, S-9, Phenobarbital-methylcholanthrene mix (4%) + 4 mM NADP, Method: Standard Plate) was “active; positive”, the mutagenic call (Test System: E. coli, Strain/Indicator: IC3327, Metabolic Activation: Rat, Liver, S-9, Phenobarbital-methylcholanthrene mix (4%), Method: Standard Plate) was “active; positive” and the mutagenic call (Test System: E. coli, Strain/Indicator: WP2 UVRA, Metabolic Activation: None, Method: Standard Plate) was “active; positive”. The mutagenic call (Test System: E. coli, Strain/Indicator: WP2 UVRA, Metabolic Activation: Rat, Liver, S-9, Phenobarbital-methylcholanthrene mix (4%) + 4 mM NADP, Method: Standard Plate) was “inactive; negative (authors report as positive based on slope but revertants <2x backgroun” and the mutagenic call (Test System: E. coli, Strain/Indicator: WP2 UVRA, Metabolic Activation: Rat, Liver, S-9, Phenobarbital-methylcholanthrene mix (4%), Method: Standard Plate) was “active; positive”.
